Assay results from patent US20030139361A1, “Drug for gene therapy” (priority 2000, published 2003).

Tested on: spleen cells derived from PVG rat and mitomycin-treated DA rat
Test: Lymphocyte mixed culture test (BrdU incorporation)
Type: cell-based
Conditions: 4 days culture, BrdU 10 μM for last 16 hours; FIG. 2
Method: To study the immunosuppressive activity of the human IDO protein prepared in Example 10, a lymphocyte mixed culture test was carried out. The spleen cells derived from a non-treated PVG rat and the spleen cells derived from a DA rat treated with 25 μg/ml of mitomycin (SIGMA-Aldrich Corporation) were seeded on a U bottom 96-well plate (NUNC Inc.) at 5×10^4/well and at 8×10^6/well, respectively. The IDO protein was then added and culturing was done for 4 days. Sixteen hours before the finish of culturing 5-bromo-2′deoxyuridine (BrdU) was added at a final concentration of 10 μM. The amount of BrdU incorporated into the intracellular DNA was quantified using a BrdU Labeling & Detection Kit III (Roche Diagnostics Inc.).

“human IDO protein: Recombinant human indoleamine 2,3-dioxygenase protein prepared in Example 10 from E. coli” was tested, and the “immunosuppressive activity (amount of BrdU incorporated into intracellular DNA)” value was “showed the immunosuppressive activity in a concentration-dependent manner”.
